Laboratory results as given in patent US9662357B2, “Bacterium and extracts of said bacterium and the use of same in dermatology” (PIERRE FABRE DERMO-COSMETIQUE, priority 2010, dated 2017).

Assays:
Assay type in all cases: cell-based
Bacterium LMB64 = assay: Antibiotic sensitivity of bacterium LMB64, zone of inhibition; details: disc load given with each antibiotic; for Zone of inhibition diameter (mm) LB ½: LB ½ dilution medium; for Zone of inhibition diameter (mm) LB ⅕: LB ⅕ dilution medium; for Zone of inhibition diameter (mm) R3: R3 medium
Skinkine = assay: PCR array, NHEK atopic dermatitis phenotype: Skinkine; details: Homo sapiens, read-out: percentage of inhibition Skinkine
Protocol: (§1) The study was carried out on normal human epidermal keratinocytes (NHEK, K-SFM culture medium) in the context of the induction of an atopic dermatitis phenotype.

TSLP = assay: PCR array, NHEK atopic dermatitis phenotype: TSLP; details: Homo sapiens, read-out: percentage of inhibition TSLP
Protocol: as §1

IL-4-R = assay: PCR array, NHEK atopic dermatitis phenotype: IL-4-R; details: Homo sapiens, read-out: percentage of inhibition IL-4-R
Protocol: as §1

MlP-1α = assay: PCR array, NHEK atopic dermatitis phenotype: MlP-1α; details: Homo sapiens, read-out: percentage of inhibition MlP-1α
Protocol: as §1

IL-8 = assay: PCR array, NHEK atopic dermatitis phenotype: IL-8; details: Homo sapiens, read-out: percentage of inhibition IL-8
Protocol: as §1

RARRES3 = assay: PCR array, NHEK atopic dermatitis phenotype: RARRES3; details: Homo sapiens, read-out: percentage of inhibition RARRES3
Protocol: as §1

MDC = assay: PCR array, NHEK atopic dermatitis phenotype: MDC; details: Homo sapiens, read-out: percentage of inhibition MDC
Protocol: as §1

RANTES = assay: PCR array, NHEK atopic dermatitis phenotype: RANTES; details: Homo sapiens, read-out: percentage of inhibition RANTES
Protocol: as §1

MIP-3α = assay: PCR array, NHEK atopic dermatitis phenotype: MIP-3α; details: Homo sapiens, read-out: percentage of inhibition MIP-3α
Protocol: as §1

IL-1α = assay: PCR array, NHEK atopic dermatitis phenotype: IL-1α; details: Homo sapiens, read-out: percentage of inhibition IL-1α
Protocol: as §1

IFN-β1 = assay: PCR array, NHEK atopic dermatitis phenotype: IFN-β1; details: Homo sapiens, read-out: percentage of inhibition IFN-β1
Protocol: as §1

IL-18 = assay: PCR array, NHEK atopic dermatitis phenotype: IL-18; details: Homo sapiens, read-out: percentage of inhibition IL-18
Protocol: as §1

Molecule | Zone of inhibition diameter (mm) LB ½ (Bacterium LMB64) [mm] | Zone of inhibition diameter (mm) LB ⅕ (Bacterium LMB64) [mm] | Zone of inhibition diameter (mm) R3 (Bacterium LMB64) [mm] | other results
CC1(C)S[C@@H]2[C@H](NC(=O)[C@H](N)c3ccccc3)C(=O)N2[C@H]1C(=O)O [Ampicillin] | 28 | 29 | 29 | –
O=C(N[C@H](CO)[C@H](O)c1ccc([N+](=O)[O-])cc1)C(Cl)Cl [Chloramphenicol] | 26 | 24 | 29 | –
O=C(O)c1cn(C2CC2)c2cc(N3CCNCC3)c(F)cc2c1=O [Ciprofloxacin] | – | 34 | 38 | –
C[C@@H]1C[C@H]2[C@@H]3CCC4=CC(=O)C=C[C@]4(C)[C@@]3(F)[C@@H](O)C[C@]2(C)[C@@]1(O)C(=O)CO [Dexamethasone] | – | – | – | inhibition at 2 µM (Skinkine): 59%; inhibition at 2 µM (TSLP): 91%; inhibition at 2 µM (IL-4-R): 75%; inhibition at 2 µM (MlP-1α): 76%; inhibition at 2 µM (IL-8): 75%; inhibition at 2 µM (RARRES3): 28%; inhibition at 2 µM (MDC): 45%; inhibition at 2 µM (RANTES): 12%; inhibition at 2 µM (MIP-3α): 40%; inhibition at 2 µM (IL-1α): 54%; inhibition at 2 µM (IFN-β1): 49%; inhibition at 2 µM (IL-18): 44%
NC[C@H]1O[C@H](O[C@H]2[C@H](O)[C@@H](O[C@H]3O[C@H](CO)[C@@H](O)[C@H](N)[C@H]3O)[C@H](N)C[C@@H]2N)[C@H](O)[C@@H](O)[C@@H]1O [Kanamycin] | 30 | 27 | 27 | –
CO[C@H]1/C=C/O[C@@]2(C)Oc3c(C)c(O)c4c(O)c(c(/C=N/N5CCN(C)CC5)c(O)c4c3C2=O)NC(=O)/C(C)=C\C=C\[C@H](C)[C@H](O)[C@@H](C)[C@@H](O)[C@@H](C)[C@H](OC(C)=O)[C@@H]1C [Rifampicin] | 19 | 15 | 20 | –
[H]/N=C(/N)N[C@H]1[C@H](O)[C@@H](O)[C@H](O[C@@H]2O[C@@H](C)[C@](O)(C=O)[C@H]2O[C@@H]2O[C@@H](CO)[C@H](O)[C@@H](O)[C@@H]2NC)[C@@H](N/C(N)=N\[H])[C@@H]1O [Streptomycin] | 25 | 24 | 25 | –
CN(C)[C@@H]1C(O)=C(C(N)=O)C(=O)[C@@]2(O)C(O)=C3C(=O)c4c(O)cccc4[C@@](C)(O)[C@H]3C[C@@H]12 [Tetracycline] | 25 | 20 | 30 | –
CN[C@H](CC(C)C)C(=O)N[C@H]1C(=O)N[C@@H](CC(N)=O)C(=O)N[C@H]2C(=O)N[C@H]3C(=O)N[C@H](C(=O)N[C@H](C(=O)O)c4cc(O)cc(O)c4-c4cc3ccc4O)[C@H](O)c3ccc(c(Cl)c3)Oc3cc2cc(c3O[C@@H]2O[C@H](CO)[C@@H](O)[C@H](O)[C@H]2O[C@H]2C[C@](C)(N)[C@H](O)[C@H](C)O2)Oc2ccc(cc2Cl)[C@H]1O [Vancomycin] | 21 | 21 | 20 | –
Penicillin | 26 | 20 | 21 | –
Polymyxin B | 15 | 13 | 11 | –
